From ChEMBL document CHEMBL5543135, “Design and Synthesis of Novel Macrocyclic Derivatives as Potent and Selective Cyclin-Dependent Kinase 7 Inhibitors” (J Med Chem, 2024)

Experiments:
in vitro [1] = settings: mouse, liver microsomes
in vitro [2] = settings: human, liver microsomes

half-life at 1 h, 1 µM (in vitro [1])	half-life at 1 h, 1 µM (in vitro [2])	SMILES
27.7 min	16.9 min	COC1CCCC2(CCNCC2)CNc2nc(n3ncc(C(C)C)c3n2)NCc2ccccc2OC1 (centres undefined)
105 min	> 186 min	CC(C)c1cnn2c(NCc3ccccc3)cc(NC[C@H]3CCNC[C@@H]3O)nc12 [CT-7001]
